Holding throughout (assay type): in vivo
Experiment [1] deals with Papaver rhoeas (weed code—PAPRH). Kind of experiment: Field trial, weed control of Papaver rhoeas in wheat. The conditions noted are these: in Triticum aesti, 12 DAA. On the procedure: (§1) Studies were conducted to compare the weed controlling activity of the combination of bensulfuron methyl, metsulfuron methyl with herbicides selected from the classes of synthetic auxins, photosystem II inhibitors, very long chain fatty acid inhibitor, carotene biosynthesis inhibitor and compare its observed efficacy with the “expected” efficacy when bensulfuron methyl and metsulfuron methyl and select individual herbicides were used to treat both dicotyledonous and monocotyledonous weeds. Any difference between the observed and “expected” efficacy could be attributed to synergy between the two compounds in the control of […] weeds. The expected efficacy of a combination of bensulfuron methyl, metsulfuron methyl with herbicides selected from the classes of synthetic auxins, photosystem II inhibitors, very long chain fatty acid inhibitor, carotene biosynthesis inhibitor was calculated using the well-established Colby method.
In the Colby method, the expected (or predicted) response of a combination of herbicides is calculated by taking the product of the observed response for each individual component of the combination when applied alone divided by 100 and subtracting this value from the sum of the observed response for each component when applied alone. An unexpected enhancement in efficacy of the combination is then determined by comparing the observed response of the combination to the expected (or predicted) response as calculated from the observed response of each individual component alone. If the observed response of the combination is greater than the expected (or predicted) response, or stated conversely, if the difference between the observed and expected response is greater than zero, then the combination is said to be synergistic or unexpectedly effective. (Colby, S. R., Weeds, 1967(15), p. 20-22) The Colby method requires only a single dose of each herbicide applied alone and the mixture of both doses. The formula used to calculate the expected efficacy (EE) which was compared with the observed efficacy (OE) to determine the efficacy of the present invention is explained hereinbelow: EE=(B efficacy+A efficacy−(B efficacy×A efficacy)/100)
The weed control activity of the individual herbicides of the invention and their combinations were evaluated on weeds such as Viola arvensis (weed code—VIOAR), Veronica persica (weed code—VERPE), Papaver rhoeas (weed code: PAPRH), Galium aparine (weed code—GALAP), Matricaria recutita weed code—MATCH), Veronica hederifolia (weed code—VERHE) and Viola arvensis (weed code—VIOAR.). The trial was carried out in Randomized Complete Block (RCB) method, all field trials were conducted using this method. Each trial were replicated four times and conducted under GEP guidelines. Application volumes were varied for each mixture. Such field trials were carried out at various locations so as to generate independent data, the locations were chosen randomly across European nations. Bensulfuron methyl and Metsulfuron methyl and selected herbicides were sprayed according to their recommended dosage.
Further field trials were carried out to test the synergy of the combination bensulfuron methyl, metsulfuron methyl and synthetic auxin fluroxypyr. The field trials were carried out at various locations in Europe during spring. […] The target weed was Papaver rhoeas (weed code—PAPRH) and the results are recorded in the table below:
Field trials were carried out test the synergy of the combination bensulfuron methyl, metsulfuron methyl, and synthetic auxin 2,4-D. The field trials were carried out at various locations in Europe during spring. […] The target weed were Senecio vulgaris (weed code—SENVU), Rapistrum rugosum (weed code—RASRU), Papaver rhoeas (weed code—PAPRH), Viola arvensis (Weed code—VIOAR), Roemeria hybrida (Weed code—is ROEHY), Galium aparine (Weed code—GALAP) and the results are recorded in the tables 3 and 4 below: […]

The test system of experiment [2] is Rapistrum rugosum (weed code—RASRU). Put plainly: Field trial, weed control of Rapistrum rugosum in wheat. The conditions noted are these: in Triticum aesti. The procedure: as §1
(§2) In the Colby method, the expected (or predicted) response of a combination of herbicides is calculated by taking the product of the observed response for each individual component of the combination when applied alone divided by 100 and subtracting this value from the sum of the observed response for each component when applied alone. An unexpected enhancement in efficacy of the combination is then determined by comparing the observed response of the combination to the expected (or predicted) response as calculated from the observed response of each individual component alone. […]
(§3) The weed control activity of the individual herbicides of the invention and their combinations were evaluated on weeds such as Viola arvensis (weed code—VIOAR), Veronica persica (weed code—VERPE), Papaver rhoeas (weed code: PAPRH), Galium aparine (weed code—GALAP), Matricaria recutita weed code—MATCH), Veronica hederifolia (weed code—VERHE) and Viola arvensis (weed code—VIOAR.). […]

Experiment [3] has as its system Galium aparine (Weed code—GALAP). Kind of experiment: Field trial, weed control of Galium aparine in wheat. Particulars: in Triticum aesti, 16 DAA, dose 0.08 g (bensulfuron methyl + metsulfuron methyl). The procedure: (§4) In the Colby method, the expected (or predicted) response of a combination of herbicides is calculated by taking the product of the observed response for each individual component of the combination when applied alone divided by 100 and subtracting this value from the sum of the observed response for each component when applied alone. An unexpected enhancement in efficacy of the combination is then determined by comparing the observed response of the combination to the expected (or predicted) response as calculated from the observed response of each individual component alone. If the observed response of the combination is greater than the expected (or predicted) response, or stated conversely, if the difference between the observed and expected response is greater than zero, then the combination is said to be synergistic or unexpectedly effective.
(§5) The trial was carried out in Randomized Complete Block (RCB) method, all field trials were conducted using this method. Each trial were replicated four times and conducted under GEP guidelines. Application volumes were varied for each mixture.

The test system of experiment [4] is weeds in general (TTTTT). Put plainly: Field trial, control of weeds in general in wheat. Particulars: in Triticum aesti, dose 50 g + 4 g (bensulfuron methyl + metsulfuron methyl); for % Weed control TTTTT, Actual: 12 DAA. The procedure:
as §4, §5

Experiment [5] concerns Veronica persica (weed code—VERPE). Kind of experiment: Field trial, weed control of Veronica persica in wheat. Particulars: in Triticum aesti, dose 50 g + 4 g (bensulfuron methyl + metsulfuron methyl), 125 g (fluroxypyr), 50 g + 4 g + 125 g (mix). The procedure: as §1
(§6) In the Colby method, the expected (or predicted) response of a combination of herbicides is calculated by taking the product of the observed response for each individual component of the combination when applied alone divided by 100 and subtracting this value from the sum of the observed response for each component when applied alone. […]

The subject of experiment [6] is Viola arvensis (weed code—VIOAR). Kind of experiment: Field trial, weed control of Viola arvensis in wheat. The conditions noted are these: in Triticum aesti. On the procedure:
as §1, §2, §3

In experiment [7] the test system is Roemeria hybrida (Weed code—is ROEHY). Put plainly: Field trial, weed control of Roemeria hybrida in wheat. The conditions noted are these: in Triticum aesti, 15 DAA; dose 0.1 Kg/ha (bensulfuron methyl + metsulfuron methyl), 2.6 l/ha (2,4D dimethylamine salt), 0.1 Kg/ha + 2.6 l/ha (mix). The procedure:
as §1, §6

Experiment [8] concerns Senecio vulgaris (weed code—SENVU). Kind of experiment: Field trial, weed control of Senecio vulgaris in wheat. Particulars: in Triticum aesti, 9 DAA; dose 0.1 Kg/ha (bensulfuron methyl + metsulfuron methyl), 2.6 l/ha (2,4D dimethylamine salt), 2.6 l/ha + 0.1 Kg/ha (mix). On the procedure: as §1, §6
[9] abbreviates: Table 2, PAPRH, dose bensulfuron methyl 50 g, metsulfuron methyl 4 g, fluroxypyr 125 g, mix 50 g + 4 g + 125 g.
Where [10] appears, read: Table 2, second PAPRH column pair, dose bensulfuron methyl 50 g, metsulfuron methyl 4 g, fluroxypyr 125 g, mix 50 g + 4 g + 125 g.

Where a name gives a salt, the structure may show the parent alone.

Turning to `COC(=O)c1ccccc1S(=O)(=O)NC(=O)Nc1nc(C)nc(OC)n1` [Metsulfuron methyl, methyl 2-(4-methoxy-6-methyl-1,3,5-triazin-2-ylcarbamoylsulfamoyl)benzoate], the figures for the “% Weed control PAPRH, Actual” value in experiment [1] (setting [9]) and in experiment [1] (setting [10]) were 48% and 48.8%, respectively.
`Cc1cc(Cl)ccc1OCC(=O)O` [MCPA dimethylamine salt, 4-chloro-2-methylphenoxy acetic acid]: the “% Weed control RASRU, Actual” value in experiment [2] (Table 5, 12 DAA, dose 0.1 kg/ha A (bensulfuron methyl + metsulfuron methyl), 4 l/ha (MCPA dimethylamine salt), 0.1 kg/ha A + 4 l/ha (mix)) worked out at 34.8%; in experiment [2] (Table 5, 56 DAA, dose 0.1 kg/ha A (bensulfuron methyl + metsulfuron methyl), 4 l/ha (MCPA dimethylamine salt), 0.1 kg/ha A + 4 l/ha (mix)), 88.3%. Further, in experiment [1] (Table 5, dose 0.1 kg/ha A (bensulfuron methyl + metsulfuron methyl), 4 l/ha (MCPA dimethylamine salt), 0.1 kg/ha A + 4 l/ha (mix)), the “% Weed control PAPRH, Actual” value worked out at 63.8%.
As for `O=C(Nc1ccc(F)cc1F)c1cccnc1Oc1cccc(C(F)(F)F)c1` [Diflufenican, 2′,4′-difluoro-2-(α,α,α-trifluoro-m-tolyloxy)nicotinanilide], the “% Weed control GALAP, Actual” value in experiment [3] (Table 7, first column pair, 0.05 g (diflufenican), 0.08 g + 0.05 g (mix)) amounted to 13%; in experiment [3] (Table 7, second column pair, 0.08 g (diflufenican), 0.08 g + 0.08 g (mix)), 20%. The “% Weed control TTTTT, Actual” value in experiment [4] (Table 6, first column pair, 0.12 g (diflufenican), 50 g + 4 g + 0.12 g (mix)) stood at 11.7%; in experiment [4] (Table 6, second column pair, 0.16 g (diflufenican), 50 g + 4 g + 0.16 g (mix)) it was 3.0%. Moreover, the “% Weed control TTTT, Actual” value in experiment [4] (Table 6, third column pair, 12 DAA T, 0.16 g (diflufenican), 50 g + 4 g + 0.16 g (mix)) is 15%.
With `Nc1c(Cl)c(F)nc(OCC(=O)O)c1Cl` [Fluroxypyr, 4-amino-3,5-dichloro-6-fluoro-2-pyridyloxyacetic acid], the “% Weed control VERPE, Actual” value was found to be 51% in experiment [5] (20 DAA) and 55% in experiment [5] (57 DAA). Moreover, the “% Weed control VIOAR, Actual” value turned out to be 31% in experiment [6] (20 DAA, dose 50 g + 4 g (bensulfuron methyl + metsulfuron methyl), 125 g (fluroxypyr), 50 g + 4 g + 125 g (mix)) and 28% in experiment [6] (57 DAA, dose 50 g + 4 g (bensulfuron methyl + metsulfuron methyl), 125 g (fluroxypyr), 50 g + 4 g + 125 g (mix)). The “% Weed control PAPRH, Actual” value in experiment [1] (setting [9]) is given as 28%; in experiment [1] (setting [10]) it was 79%.
Consider `COC(=O)c1ccccc1CS(=O)(=O)NC(=O)Nc1nc(OC)cc(OC)n1` [Bensulfuron methyl, methyl α-[(4,6-dimethoxypyrimidin-2-ylcarbamoyl)sulfamoyl]-o-toluate], for which the “% Weed control PAPRH, Actual” value in experiment [1] (setting [9]) and in experiment [1] (setting [10]) was 50% in each case.
Turning to `O=C(O)COc1ccc(Cl)cc1Cl` [2,4D dimethylamine salt, 2,4-Dichlorophenoxy acetic acid], in experiment [7], the “% Weed control ROEHY, Actual” value came out at 37.5%. For the same compound, the “% Weed control RASRU, Actual” value in experiment [2] (Table 3, 12 DAA, dose 0.1 Kg/ha (bensulfuron methyl + metsulfuron methyl), 2.6 l/ha (2,4D dimethylamine salt), 2.6 l/ha + 0.1 Kg/ha (mix)) is given as 32.4%. Besides, the “% Weed control SENVU, Actual” value in experiment [8] is on record as 62.5%. Besides, in experiment [6] (Table 4, 12 DAA, dose 0.1 Kg/ha (bensulfuron methyl + metsulfuron methyl), 2.6 l/ha (2,4D dimethylamine salt), 0.1 Kg/ha + 2.6 l/ha (mix)), the “% Weed control VIOAR, Actual” value worked out at 18.8%. Moreover, the “% Weed control PAPRH, Actual” value in experiment [1] (Table 3, dose 0.1 Kg/ha (bensulfuron methyl + metsulfuron methyl), 2.6 l/ha (2,4D dimethylamine salt), 2.6 l/ha + 0.1 Kg/ha (mix)) is 37.5%.

(Values after US11102978B2, “Herbicide combination” (priority 2016, dated 2021).)
